Reference: US20090028840A1, “Compositions For Preventing Or Treating Arthritis Comprising Lactic Acid Bacteria and Collangen As Active Ingredients” (Gwangju Institute of Sciecne and Technology, priority 2005, published 2009)

Experiments:
[1] = tested on: infiltration of lymphocytes into joint tissues; test: Histological analysis of ankle joints of CIA rats (hematoxylin and eosin); assay type: in vivo, rat; settings: 35 days after immunization, FIG. 5
Source text: Joints dissected were washed with PBS and fixed for 24 hr in 4% paraformaldehyde, followed by decalcification for 2-3 days in decalcification solution (Merck). The decalcified joint tissues were embedded in paraffin, sectioned to […], deparaffinized, stained with hematoxylin and eosin, and observed under microscope. A basic dye, hematoxylin binds to nucleus containing negative-charged DNA and RNA molecules and an acidic dye, eosin binds to cytoplasmic proteins and collagen with positive charge.

[2] = tested on: collagen-induced arthritis (CIA); test: Comparative tests for treatment efficacy in collagen-induced arthritis (CIA) rats; assay type: in vivo, Lewis rat; settings: acute phase (until 35 days after immunization), FIGS. 3 and 4

Q: `CN(Cc1cnc2nc(N)nc(N)c2n1)c1ccc(C(=O)N[C@@H](CCC(=O)O)C(=O)O)cc1` [MTX, methotrexate] was tested. Which “infiltration of lymphocytes (immune cells) into joints” value [1] did it give?
A: little or no occurrence of the infiltration of lymphocytes

Q: What about the “treatment efficacy on arthritis during acute phase” value [2] of the same molecule?
A: better until acute phase (until 35 days after immunization) than the present composition

Q: How did the “treatment efficacy on arthritis during acute phase” value [2] turn out when “Lactobacillus casei [lactic acid bacteria]” was run?
A: low
